# Results published in patent US12428408B2, “Fused heterocyclic mescaline derivatives” (Enveric Biosciences Canada Inc., priority 2022, dated 2025).
# Like-named read-outs stand apart in the source and are kept apart here.
# Columns and labels:
# 5-HT1A receptor = biological target: T1, 5-HT1A receptor (Homo sapiens, UniProt P08908); assay: 5-HT1A receptor radioligand competition assay (SPA); assay type: binding
# T1 construct: purchased Perkin Elmer 6110501400UA
# T1 sequence (P08908 1-422): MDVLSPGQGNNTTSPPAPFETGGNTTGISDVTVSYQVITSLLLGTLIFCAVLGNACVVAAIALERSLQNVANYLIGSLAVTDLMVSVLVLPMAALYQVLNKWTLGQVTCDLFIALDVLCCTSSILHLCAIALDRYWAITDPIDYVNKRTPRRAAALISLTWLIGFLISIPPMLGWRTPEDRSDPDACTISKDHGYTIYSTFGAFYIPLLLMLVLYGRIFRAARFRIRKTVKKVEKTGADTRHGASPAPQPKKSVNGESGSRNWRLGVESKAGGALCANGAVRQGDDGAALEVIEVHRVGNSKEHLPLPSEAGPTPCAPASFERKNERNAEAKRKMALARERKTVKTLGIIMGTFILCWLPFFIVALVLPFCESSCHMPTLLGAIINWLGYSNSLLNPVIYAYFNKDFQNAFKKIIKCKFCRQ
# [1] = biological target: T2, human serotonin transporter (SERT) (Homo sapiens, UniProt P31645); assay: biochemical; assay type: binding
# T2 construct: purchased PerkinElmer RBHSTM400UA
# 5-HT1B (h) = biological target: T3, 5-HT1B (h) (Homo sapiens, UniProt P28222); assay: Competition assay to measure binding affinity at 5-HT1B receptor; settings: test ligand 10 μM; [3H]GR125743 1 nM
# T3 construct: host or cells: Chem-1 (RBL) cells
# 5-HT1D (r) = biological target: T4, 5-HT1D (r) (Rattus norvegicus, UniProt P28565); assay: Competition assay to measure binding affinity at 5-HT1D receptor; settings: test ligand 10 μM; [3H]serotonin 1 nM
# T4 construct: host or cells: CHO cells
# 5-HT2B (h) = biological target: T5, 5-HT2B (h) (Homo sapiens, UniProt P41595); assay: Competition assay to measure binding affinity at 5-HT2B receptor; settings: test ligand 10 μM; [3H]mesulergine 2 nM
# T5 construct: host or cells: CHO cells
# 5-HT2C (h) = biological target: T6, 5-HT2C (h) (Homo sapiens, UniProt P28335); assay: Competition assay to measure binding affinity at 5-HT2C receptor; settings: test ligand 10 μM; [125I](±)DOI 0.1 nM
# T6 construct: host or cells: HEK-293 cells
# T6 sequence (P28335 33-458): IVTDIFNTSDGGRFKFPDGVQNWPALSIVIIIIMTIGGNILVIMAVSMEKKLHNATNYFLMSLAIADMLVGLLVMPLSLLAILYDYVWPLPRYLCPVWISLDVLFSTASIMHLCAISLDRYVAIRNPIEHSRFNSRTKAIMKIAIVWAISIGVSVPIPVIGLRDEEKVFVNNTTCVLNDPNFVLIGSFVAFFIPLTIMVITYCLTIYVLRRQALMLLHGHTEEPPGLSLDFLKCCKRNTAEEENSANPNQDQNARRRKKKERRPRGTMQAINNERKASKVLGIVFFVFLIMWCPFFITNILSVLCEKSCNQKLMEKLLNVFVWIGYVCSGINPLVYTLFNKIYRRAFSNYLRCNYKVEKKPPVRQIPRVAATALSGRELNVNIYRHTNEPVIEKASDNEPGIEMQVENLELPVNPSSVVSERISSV
# 5-HT7 (h) = biological target: T7, 5-HT7 (h) (Homo sapiens, UniProt P34969); assay: Competition assay to measure binding affinity at 5-HT7 receptor; settings: test ligand 10 μM; [3H]LSD 4 nM
# T7 construct: host or cells: HEK-293 cells
# alpha2A (h) = biological target: T8, alpha2A (h) (Homo sapiens, UniProt P08913); assay: Competition assay to measure binding affinity at alpha2A receptor; settings: test ligand 10 μM; [3H]RX 821002 1 nM; read-out: α-2A, percent of control-specific binding
# T8 construct: host or cells: CHO cells
# T8 sequence (P08913 1-465): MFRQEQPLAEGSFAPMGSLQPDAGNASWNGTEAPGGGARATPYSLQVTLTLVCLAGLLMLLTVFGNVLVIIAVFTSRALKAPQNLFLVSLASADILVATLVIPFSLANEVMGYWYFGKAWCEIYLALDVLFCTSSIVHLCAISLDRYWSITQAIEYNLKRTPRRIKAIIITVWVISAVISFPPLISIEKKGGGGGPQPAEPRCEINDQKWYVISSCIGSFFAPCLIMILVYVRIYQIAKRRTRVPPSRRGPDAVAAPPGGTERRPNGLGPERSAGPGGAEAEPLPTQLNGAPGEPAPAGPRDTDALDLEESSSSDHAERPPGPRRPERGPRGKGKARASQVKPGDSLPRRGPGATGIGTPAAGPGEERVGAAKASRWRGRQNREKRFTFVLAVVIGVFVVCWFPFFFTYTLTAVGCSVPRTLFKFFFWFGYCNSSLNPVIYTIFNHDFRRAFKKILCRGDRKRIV
# D2 (h) = biological target: T9, D2 (h) (Homo sapiens, UniProt P14416); assay: Competition assay to measure binding affinity at D2L receptor; settings: test ligand 10 μM; [3H]methylspiperone 0.3 nM
# T9 construct: host or cells: HEK-293 cells
# D3 (h) = biological target: T10, D3 (h) (Homo sapiens, UniProt P35462); assay: Competition assay to measure binding affinity at D3 receptor; settings: test ligand 10 μM; [3H]methylspiperone […]
# T10 construct: host or cells: CHO cells
# DAT (h) = biological target: T11, DAT (h) (Homo sapiens, UniProt Q01959); assay: Competition assay to measure binding affinity at dopamine transporter (DAT); settings: test ligand 10 μM; [3H]BTCP 4 nM
# T11 construct: host or cells: CHO cells
# MT1 (ML1A) (h) = biological target: T12, MT1 (ML1A) (h) (Homo sapiens, UniProt P48039); assay: Competition assay to measure binding affinity at MT1 receptor; settings: test ligand 10 μM; [125I]2-iodomelatonin 0.01 nM
# T12 construct: host or cells: CHO cells
# NET (h) = biological target: T13, NET (h) (Homo sapiens, UniProt P23975); assay: Competition assay to measure binding affinity at norepinephrine transporter (NET); settings: test ligand 10 μM; [3H]nisoxetine 1 nM
# T13 construct: host or cells: CHO cells
# 5-HT2A receptor = 5-HT2A receptor (Homo sapiens, UniProt P28223); assay: 5-HT2A receptor radioligand competition assay (SPA)
# [2] = competition with 0.5 nM 8-hydroxy-DPAT [3H], test compound 3 nM to 1 mM, read-out: 5-HT1A, Ki
# T5 sequence (P41595 whole entry): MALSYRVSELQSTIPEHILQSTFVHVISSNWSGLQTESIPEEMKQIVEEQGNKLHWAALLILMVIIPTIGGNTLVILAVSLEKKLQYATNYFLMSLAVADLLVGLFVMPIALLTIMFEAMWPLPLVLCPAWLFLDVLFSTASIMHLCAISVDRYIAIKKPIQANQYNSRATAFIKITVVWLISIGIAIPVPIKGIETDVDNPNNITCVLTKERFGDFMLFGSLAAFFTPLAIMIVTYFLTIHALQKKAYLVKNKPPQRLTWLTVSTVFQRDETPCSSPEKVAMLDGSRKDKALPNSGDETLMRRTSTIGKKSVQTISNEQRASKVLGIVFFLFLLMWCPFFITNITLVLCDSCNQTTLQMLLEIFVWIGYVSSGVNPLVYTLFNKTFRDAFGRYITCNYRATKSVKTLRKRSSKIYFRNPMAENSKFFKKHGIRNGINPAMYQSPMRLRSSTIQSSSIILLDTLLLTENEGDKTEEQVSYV
# T9 sequence (P14416 whole entry): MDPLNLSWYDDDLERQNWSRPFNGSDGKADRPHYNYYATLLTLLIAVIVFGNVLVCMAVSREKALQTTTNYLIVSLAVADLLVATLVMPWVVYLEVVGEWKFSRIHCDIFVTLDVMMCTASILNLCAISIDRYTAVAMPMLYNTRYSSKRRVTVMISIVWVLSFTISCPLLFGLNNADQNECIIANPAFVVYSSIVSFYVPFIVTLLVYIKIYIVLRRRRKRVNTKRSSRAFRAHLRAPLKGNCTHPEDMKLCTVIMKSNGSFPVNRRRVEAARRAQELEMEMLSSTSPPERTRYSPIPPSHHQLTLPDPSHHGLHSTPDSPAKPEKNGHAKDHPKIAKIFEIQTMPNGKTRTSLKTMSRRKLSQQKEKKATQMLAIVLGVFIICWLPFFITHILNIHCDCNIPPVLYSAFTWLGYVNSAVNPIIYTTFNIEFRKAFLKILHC
# T2 sequence (P31645 whole entry): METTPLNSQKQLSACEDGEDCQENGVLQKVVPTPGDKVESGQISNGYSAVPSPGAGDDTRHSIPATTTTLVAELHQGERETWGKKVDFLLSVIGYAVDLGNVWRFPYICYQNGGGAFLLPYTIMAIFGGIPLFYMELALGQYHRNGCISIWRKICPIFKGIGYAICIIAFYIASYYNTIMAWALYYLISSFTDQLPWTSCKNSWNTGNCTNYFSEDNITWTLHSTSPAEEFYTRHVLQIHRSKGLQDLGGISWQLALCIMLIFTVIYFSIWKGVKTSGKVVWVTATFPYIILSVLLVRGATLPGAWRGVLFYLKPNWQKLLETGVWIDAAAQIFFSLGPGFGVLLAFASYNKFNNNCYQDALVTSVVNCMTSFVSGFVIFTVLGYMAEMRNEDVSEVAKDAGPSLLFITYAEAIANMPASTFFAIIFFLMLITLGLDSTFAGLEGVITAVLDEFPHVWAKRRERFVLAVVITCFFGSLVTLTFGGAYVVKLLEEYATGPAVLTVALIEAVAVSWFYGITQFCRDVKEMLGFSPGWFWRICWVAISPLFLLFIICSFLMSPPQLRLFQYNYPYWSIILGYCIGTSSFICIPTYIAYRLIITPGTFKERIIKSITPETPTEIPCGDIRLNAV
# T13 sequence (P23975 whole entry): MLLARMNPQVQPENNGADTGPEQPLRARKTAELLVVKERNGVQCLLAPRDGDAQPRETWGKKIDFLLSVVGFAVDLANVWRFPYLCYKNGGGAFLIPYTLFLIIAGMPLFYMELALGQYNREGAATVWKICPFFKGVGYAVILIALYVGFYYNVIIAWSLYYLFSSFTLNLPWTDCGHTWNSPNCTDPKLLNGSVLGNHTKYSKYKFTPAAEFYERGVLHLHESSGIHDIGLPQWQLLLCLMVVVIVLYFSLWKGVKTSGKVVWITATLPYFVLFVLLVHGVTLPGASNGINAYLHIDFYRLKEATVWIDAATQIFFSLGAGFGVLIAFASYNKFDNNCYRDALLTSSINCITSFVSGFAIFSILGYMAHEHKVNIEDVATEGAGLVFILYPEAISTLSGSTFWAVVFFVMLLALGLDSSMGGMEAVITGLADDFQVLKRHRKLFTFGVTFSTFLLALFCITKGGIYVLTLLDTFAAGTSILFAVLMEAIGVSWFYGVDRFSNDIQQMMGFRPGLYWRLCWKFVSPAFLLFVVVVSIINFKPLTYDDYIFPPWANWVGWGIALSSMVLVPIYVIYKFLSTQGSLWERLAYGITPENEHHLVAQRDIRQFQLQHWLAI
# T3 sequence (P28222 whole entry): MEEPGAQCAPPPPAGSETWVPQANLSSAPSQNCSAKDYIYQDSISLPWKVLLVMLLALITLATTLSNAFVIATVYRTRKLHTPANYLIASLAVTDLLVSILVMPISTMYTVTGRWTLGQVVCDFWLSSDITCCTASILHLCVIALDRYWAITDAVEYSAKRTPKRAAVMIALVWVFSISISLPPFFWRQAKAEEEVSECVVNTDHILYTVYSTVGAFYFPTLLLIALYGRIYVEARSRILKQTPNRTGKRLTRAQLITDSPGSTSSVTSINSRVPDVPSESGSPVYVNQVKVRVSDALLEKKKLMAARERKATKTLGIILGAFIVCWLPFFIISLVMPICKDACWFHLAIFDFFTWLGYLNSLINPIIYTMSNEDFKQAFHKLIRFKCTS
# T4 sequence (P28565 whole entry): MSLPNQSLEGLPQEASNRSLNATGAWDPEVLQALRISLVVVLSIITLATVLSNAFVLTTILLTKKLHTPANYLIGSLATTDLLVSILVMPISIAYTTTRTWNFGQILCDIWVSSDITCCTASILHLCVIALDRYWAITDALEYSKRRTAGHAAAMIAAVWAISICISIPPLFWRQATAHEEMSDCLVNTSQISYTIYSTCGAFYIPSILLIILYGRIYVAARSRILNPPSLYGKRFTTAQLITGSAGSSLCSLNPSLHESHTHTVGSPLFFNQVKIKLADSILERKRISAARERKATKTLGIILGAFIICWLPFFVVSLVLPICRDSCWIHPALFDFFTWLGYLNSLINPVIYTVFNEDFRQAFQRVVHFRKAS
# Chain of 5-HT2A receptor (P28223 whole entry): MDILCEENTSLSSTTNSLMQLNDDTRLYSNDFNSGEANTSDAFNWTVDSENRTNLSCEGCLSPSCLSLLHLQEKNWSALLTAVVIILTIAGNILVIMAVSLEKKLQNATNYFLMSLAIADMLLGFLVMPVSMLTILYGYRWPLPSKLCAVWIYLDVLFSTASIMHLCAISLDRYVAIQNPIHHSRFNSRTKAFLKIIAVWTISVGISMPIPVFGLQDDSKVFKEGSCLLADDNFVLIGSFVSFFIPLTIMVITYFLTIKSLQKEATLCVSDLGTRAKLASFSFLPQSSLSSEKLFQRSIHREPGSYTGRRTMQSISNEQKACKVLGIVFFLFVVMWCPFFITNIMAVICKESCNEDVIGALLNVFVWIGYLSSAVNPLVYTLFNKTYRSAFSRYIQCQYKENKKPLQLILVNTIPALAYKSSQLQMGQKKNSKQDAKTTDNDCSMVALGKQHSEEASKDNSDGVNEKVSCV
# T11 sequence (Q01959 whole entry): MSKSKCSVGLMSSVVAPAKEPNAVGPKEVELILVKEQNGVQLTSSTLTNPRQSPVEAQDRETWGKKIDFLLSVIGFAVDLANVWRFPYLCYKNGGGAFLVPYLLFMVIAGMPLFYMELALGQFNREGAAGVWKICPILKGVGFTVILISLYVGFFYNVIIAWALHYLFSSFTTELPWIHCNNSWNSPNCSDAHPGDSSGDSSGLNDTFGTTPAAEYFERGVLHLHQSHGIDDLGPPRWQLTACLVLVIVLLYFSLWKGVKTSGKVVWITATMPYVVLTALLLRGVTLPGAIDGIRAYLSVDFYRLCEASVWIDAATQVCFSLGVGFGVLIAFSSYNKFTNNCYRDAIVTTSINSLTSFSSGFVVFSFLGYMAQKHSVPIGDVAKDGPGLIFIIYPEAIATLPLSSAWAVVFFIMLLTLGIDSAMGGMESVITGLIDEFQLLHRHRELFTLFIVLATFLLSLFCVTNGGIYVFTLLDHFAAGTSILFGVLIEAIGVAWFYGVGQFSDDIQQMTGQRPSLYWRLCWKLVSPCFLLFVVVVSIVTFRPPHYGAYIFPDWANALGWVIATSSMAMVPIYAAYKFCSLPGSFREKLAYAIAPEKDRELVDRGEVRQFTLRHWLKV
# T10 sequence (P35462 whole entry): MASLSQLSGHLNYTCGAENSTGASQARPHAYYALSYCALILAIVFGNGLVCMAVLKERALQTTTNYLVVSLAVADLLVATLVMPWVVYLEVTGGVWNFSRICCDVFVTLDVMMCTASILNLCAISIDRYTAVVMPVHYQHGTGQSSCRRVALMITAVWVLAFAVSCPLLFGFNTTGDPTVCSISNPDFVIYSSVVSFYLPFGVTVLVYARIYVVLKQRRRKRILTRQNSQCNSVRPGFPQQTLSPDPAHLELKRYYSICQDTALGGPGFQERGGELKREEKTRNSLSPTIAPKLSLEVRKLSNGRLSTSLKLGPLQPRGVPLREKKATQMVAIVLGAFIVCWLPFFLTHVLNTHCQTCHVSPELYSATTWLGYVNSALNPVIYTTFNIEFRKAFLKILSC
# T7 sequence (P34969 whole entry): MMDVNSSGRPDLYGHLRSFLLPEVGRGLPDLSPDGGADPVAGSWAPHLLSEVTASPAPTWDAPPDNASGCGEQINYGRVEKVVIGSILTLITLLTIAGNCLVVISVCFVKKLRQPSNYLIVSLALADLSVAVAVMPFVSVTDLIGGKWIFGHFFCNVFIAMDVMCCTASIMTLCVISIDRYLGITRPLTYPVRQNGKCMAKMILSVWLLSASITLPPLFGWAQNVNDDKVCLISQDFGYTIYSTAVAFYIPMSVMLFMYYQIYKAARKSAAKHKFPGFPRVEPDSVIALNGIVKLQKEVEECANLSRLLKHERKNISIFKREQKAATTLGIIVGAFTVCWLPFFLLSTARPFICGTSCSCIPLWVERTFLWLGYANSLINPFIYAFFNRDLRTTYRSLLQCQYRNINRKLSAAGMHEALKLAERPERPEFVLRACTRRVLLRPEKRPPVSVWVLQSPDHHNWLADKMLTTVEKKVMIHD
Structure (SMILES),Ki (5-HT1A receptor; [2]),Ki [1],"HT1B, percent of control-specific binding (5-HT1B (h))","HT1D, percent of control-specific binding (5-HT1D (r))","HT2B, percent of control-specific binding (5-HT2B (h))","HT2C, percent of control-specific binding (5-HT2C (h))","HT7, percent of control-specific binding (5-HT7 (h))",inhibition at 10 µM (alpha2A (h)),"D2, percent of control-specific binding (D2 (h))","D3, percent of control-specific binding (D3 (h))","DAT, percent of control-specific binding (DAT (h))","MT1, percent of control-specific binding (MT1 (ML1A) (h))","NET, percent of control-specific binding (NET (h))",Ki (5-HT2A receptor),Ki (5-HT1A receptor),"SERT binding, binding curve in words [1]"
CC(C)(C)OC(=O)NC1CN(CCc2ccc3c(c2)OCO3)C1 [A(XV)],3.1 µM,64.3 µM,1%,29%,58%,36%,58%,6%,0%,53%,39%,0%,11%,86 µM,,
CC(Cc1ccc2c(c1)OCO2)NCc1cc2c(cc1Br)OCO2 (stereo not drawn) [A(VI)],,0.475 µM,0%,47%,99%,97%,67%,74%,39%,42%,79%,20%,55%,5.3 µM,1.52 µM,binds SERT
CC(Cc1ccc2c(c1)OCCO2)N1CC(NC(=O)OC(C)(C)C)C1 (stereo not drawn) [A(XVI)],1.4 µM,58.1 µM,27%,37%,90%,79%,62%,86%,21%,82%,16%,3%,24%,39 µM,,
CC(Cc1ccc2c(c1)OCCO2)NC1CCC1 (stereo not drawn) [A(XVII)],,1.71 µM,0%,0%,47%,20%,24%,64%,2%,19%,84%,1%,18%,188 µM,23.3 µM,
COc1cc2c(cc1CNC(C)Cc1ccc3c(c1)OCO3)OCO2 (stereo not drawn) [A(V)],,1.28 µM,0%,0%,92%,90%,68%,74%,19%,23%,84%,23%,83%,19 µM,1.88 µM,
O=C(Cc1cc2c(cc1Br)OCO2)NCCO [A(XIX)],586 µM,> 1000 µM,0%,0%,7%,22%,1%,10%,0%,0%,0%,15%,0%,18.8 µM,,
O=C(Cc1c(Br)ccc2c1OCO2)N1CCCC1 [A(XXVI)],44.4 µM,,0%,0%,1%,1%,0%,0%,0%,0%,0%,30%,0%,31 µM,,
CC(Cc1ccc2c(c1)OCCO2)NCc1cc2c(cc1Br)OCO2 (stereo not drawn) [A(IX)],,0.223 µM,1%,83%,97%,88%,72%,82%,35%,45%,75%,24%,47%,19 µM,0.986 µM,
CC(Cc1ccc2c(c1)OCCO2)NCc1cc2c(cc1Br)OCCO2 (stereo not drawn) [A(XI)],,0.191 µM,7%,31%,94%,63%,62%,92%,40%,36%,47%,15%,64%,7 µM,0.507 µM,
N#CC(Cc1ccc2c(c1)OCO2)NC1CCC1 (stereo not drawn) [A(XX)],123 µM,286 µM,0%,14%,53%,41%,26%,3%,24%,0%,39%,14%,1%,42.1 µM,,
CON(C)C(C)Cc1ccc2c(c1)OCO2 (stereo not drawn) [A(XVIII)],> 1000 µM,98 µM,6%,0%,9%,3%,6%,0%,0%,5%,5%,6%,1%,,,
